The text below walks through data of ChEMBL document CHEMBL1681705, “Optimisation of ITK inhibitors through successive iterative design cycles” (Bioorg Med Chem Lett, 2011).

Experiment [1] in a line: Inhibition of PDK1 at 0.1 uM.
Experiment [2] concerns the target Tyrosine-protein kinase CSK (Homo sapiens) (UniProt P41240). Kind of experiment: Inhibition of CSK at 1 uM; values are per cent of control.
The target of experiment [3] is Tyrosine-protein kinase Yes (Homo sapiens) (UniProt P07947). Description: Inhibition of Yes at 1 uM; values are per cent of control.
Experiment [4] concerns the target 3-phosphoinositide-dependent protein kinase 1 (Homo sapiens) (UniProt O15530). Kind of experiment: Inhibition of PDK1 at 1 uM; values are per cent of control.
Experiment [5] addresses RAF proto-oncogene serine/threonine-protein kinase (Homo sapiens) (UniProt P04049). Description: Inhibition of c-RAF at 1 uM; values are per cent of control.
For experiment [6], the target named is Fibroblast growth factor receptor 1 (Homo sapiens) (UniProt P11362). Description: Inhibition of FGFR1 at 1 uM; values are per cent of control.
The target of experiment [7] is Fibroblast growth factor receptor 3 (Homo sapiens) (UniProt P22607). Kind of experiment: Inhibition of FGFR3 at 1 uM; values are per cent of control.
Experiment [8] concerns the target Serine/threonine-protein kinase pim-1 (Homo sapiens) (UniProt P11309). Kind of experiment: Inhibition of Pim-1 at 1 uM; values are per cent of control.
In experiment [9] the target is Receptor-interacting serine/threonine-protein kinase 2 (Homo sapiens) (UniProt O43353). Description: Inhibition of RIPK2 at 1 uM; values are per cent of control.
Experiment [10] concerns the target BDNF/NT-3 growth factors receptor (Homo sapiens) (UniProt Q16620). Description: Inhibition of TrkB at 0.1 uM; values are per cent of control.
For experiment [11], the target named is Mast/stem cell growth factor receptor Kit (Homo sapiens) (UniProt P10721). Description: Inhibition of c-Kit at 0.1 uM; values are per cent of control.
The target in experiment [12] is T1, Ephrin type-A receptor 8 (Homo sapiens) (UniProt P29322).
T1 sequence (whole entry): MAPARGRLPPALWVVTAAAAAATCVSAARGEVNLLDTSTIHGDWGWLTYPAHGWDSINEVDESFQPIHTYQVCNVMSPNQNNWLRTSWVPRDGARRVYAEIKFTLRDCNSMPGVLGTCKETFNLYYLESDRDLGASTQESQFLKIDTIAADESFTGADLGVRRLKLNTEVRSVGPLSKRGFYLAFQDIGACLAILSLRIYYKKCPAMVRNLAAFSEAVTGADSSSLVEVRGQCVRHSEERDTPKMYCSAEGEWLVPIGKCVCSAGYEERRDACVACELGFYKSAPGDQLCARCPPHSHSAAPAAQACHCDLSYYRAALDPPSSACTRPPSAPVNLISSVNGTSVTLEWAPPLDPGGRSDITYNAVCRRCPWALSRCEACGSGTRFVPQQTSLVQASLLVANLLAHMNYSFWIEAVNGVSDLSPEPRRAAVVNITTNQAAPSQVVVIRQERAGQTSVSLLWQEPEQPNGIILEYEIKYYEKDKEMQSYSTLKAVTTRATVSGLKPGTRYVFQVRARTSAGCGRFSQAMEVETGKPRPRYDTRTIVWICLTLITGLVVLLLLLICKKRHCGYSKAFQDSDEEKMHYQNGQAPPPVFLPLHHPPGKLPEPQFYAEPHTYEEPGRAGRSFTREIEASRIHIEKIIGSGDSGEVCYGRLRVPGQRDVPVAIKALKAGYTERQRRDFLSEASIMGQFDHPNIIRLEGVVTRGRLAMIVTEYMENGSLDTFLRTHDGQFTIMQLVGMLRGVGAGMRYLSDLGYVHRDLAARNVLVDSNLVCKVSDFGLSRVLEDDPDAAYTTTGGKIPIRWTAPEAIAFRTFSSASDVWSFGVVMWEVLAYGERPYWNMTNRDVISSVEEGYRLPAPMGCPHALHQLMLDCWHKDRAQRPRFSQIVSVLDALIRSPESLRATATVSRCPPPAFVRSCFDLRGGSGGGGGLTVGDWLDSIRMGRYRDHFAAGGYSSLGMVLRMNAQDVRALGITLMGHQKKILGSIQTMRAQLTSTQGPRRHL
Description: Inhibition of EphA8 at 0.1 uM; values are per cent of control.

Experiment [13] has as its target LIM domain kinase 1 (Homo sapiens) (UniProt P53667). Description: Inhibition of LIMK1 at 0.1 uM; values are per cent of control.
For experiment [14], the target named is T2, Inhibitor of nuclear factor kappa-B kinase subunit beta (Homo sapiens) (UniProt O14920).
T2 sequence (whole entry): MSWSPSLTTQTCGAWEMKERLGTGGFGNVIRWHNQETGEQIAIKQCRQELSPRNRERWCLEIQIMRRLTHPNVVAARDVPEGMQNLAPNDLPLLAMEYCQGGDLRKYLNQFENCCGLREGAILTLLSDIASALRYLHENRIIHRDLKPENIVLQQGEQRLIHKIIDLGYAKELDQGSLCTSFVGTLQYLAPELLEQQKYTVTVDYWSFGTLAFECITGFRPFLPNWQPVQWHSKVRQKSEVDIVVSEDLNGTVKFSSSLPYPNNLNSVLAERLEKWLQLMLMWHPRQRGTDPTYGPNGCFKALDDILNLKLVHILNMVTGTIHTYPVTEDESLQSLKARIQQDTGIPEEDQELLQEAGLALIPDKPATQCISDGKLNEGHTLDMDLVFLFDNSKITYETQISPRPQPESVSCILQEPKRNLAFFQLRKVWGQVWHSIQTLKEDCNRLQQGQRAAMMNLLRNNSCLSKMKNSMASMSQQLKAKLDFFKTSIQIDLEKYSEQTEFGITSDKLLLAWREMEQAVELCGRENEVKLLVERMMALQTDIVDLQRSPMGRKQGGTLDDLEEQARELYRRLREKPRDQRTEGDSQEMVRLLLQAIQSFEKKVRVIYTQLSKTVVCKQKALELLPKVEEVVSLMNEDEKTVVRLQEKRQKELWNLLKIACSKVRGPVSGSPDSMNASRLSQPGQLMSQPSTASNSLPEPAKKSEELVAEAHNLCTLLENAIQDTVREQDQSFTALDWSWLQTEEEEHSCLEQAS
Kind of experiment: Inhibition of IKK-beta at 1 uM; values are per cent of control.

The target of experiment [15] is RAC-alpha serine/threonine-protein kinase (Homo sapiens) (UniProt P31749). Description: Inhibition of PKBalpha at 1 uM; values are per cent of control.
Sequence of RAC-alpha serine/threonine-protein kinase (Homo sapiens) (P31749 whole entry): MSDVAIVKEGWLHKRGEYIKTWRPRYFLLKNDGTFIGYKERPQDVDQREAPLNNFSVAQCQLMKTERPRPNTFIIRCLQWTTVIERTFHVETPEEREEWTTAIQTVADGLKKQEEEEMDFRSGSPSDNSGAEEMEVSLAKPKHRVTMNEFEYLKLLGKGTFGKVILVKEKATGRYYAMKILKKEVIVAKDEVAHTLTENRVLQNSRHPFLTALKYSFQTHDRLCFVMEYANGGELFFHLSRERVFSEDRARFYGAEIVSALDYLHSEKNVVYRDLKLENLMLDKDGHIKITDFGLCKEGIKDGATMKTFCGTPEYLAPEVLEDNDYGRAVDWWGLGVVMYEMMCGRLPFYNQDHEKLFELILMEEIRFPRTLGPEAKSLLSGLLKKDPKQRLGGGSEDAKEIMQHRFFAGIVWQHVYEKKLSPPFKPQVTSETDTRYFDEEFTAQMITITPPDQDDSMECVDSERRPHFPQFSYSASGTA

Sequence of 3-phosphoinositide-dependent protein kinase 1 (Homo sapiens) (O15530 whole entry, looked up): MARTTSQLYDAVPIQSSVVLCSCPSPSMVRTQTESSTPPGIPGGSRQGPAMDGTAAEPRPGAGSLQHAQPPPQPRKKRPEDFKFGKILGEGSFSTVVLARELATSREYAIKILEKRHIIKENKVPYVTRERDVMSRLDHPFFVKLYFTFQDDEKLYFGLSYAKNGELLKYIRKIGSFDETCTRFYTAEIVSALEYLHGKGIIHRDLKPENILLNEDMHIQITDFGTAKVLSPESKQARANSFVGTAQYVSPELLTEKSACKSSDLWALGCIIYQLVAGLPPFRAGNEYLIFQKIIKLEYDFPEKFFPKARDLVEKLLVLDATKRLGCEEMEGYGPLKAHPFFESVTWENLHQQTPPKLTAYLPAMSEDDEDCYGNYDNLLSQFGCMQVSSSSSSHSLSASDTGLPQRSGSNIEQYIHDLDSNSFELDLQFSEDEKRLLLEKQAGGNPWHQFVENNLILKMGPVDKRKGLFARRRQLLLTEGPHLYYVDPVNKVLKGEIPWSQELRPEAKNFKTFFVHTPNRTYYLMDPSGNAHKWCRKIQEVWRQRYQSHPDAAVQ
Sequence of BDNF/NT-3 growth factors receptor (Homo sapiens) (Q16620 32-822 limits assumed): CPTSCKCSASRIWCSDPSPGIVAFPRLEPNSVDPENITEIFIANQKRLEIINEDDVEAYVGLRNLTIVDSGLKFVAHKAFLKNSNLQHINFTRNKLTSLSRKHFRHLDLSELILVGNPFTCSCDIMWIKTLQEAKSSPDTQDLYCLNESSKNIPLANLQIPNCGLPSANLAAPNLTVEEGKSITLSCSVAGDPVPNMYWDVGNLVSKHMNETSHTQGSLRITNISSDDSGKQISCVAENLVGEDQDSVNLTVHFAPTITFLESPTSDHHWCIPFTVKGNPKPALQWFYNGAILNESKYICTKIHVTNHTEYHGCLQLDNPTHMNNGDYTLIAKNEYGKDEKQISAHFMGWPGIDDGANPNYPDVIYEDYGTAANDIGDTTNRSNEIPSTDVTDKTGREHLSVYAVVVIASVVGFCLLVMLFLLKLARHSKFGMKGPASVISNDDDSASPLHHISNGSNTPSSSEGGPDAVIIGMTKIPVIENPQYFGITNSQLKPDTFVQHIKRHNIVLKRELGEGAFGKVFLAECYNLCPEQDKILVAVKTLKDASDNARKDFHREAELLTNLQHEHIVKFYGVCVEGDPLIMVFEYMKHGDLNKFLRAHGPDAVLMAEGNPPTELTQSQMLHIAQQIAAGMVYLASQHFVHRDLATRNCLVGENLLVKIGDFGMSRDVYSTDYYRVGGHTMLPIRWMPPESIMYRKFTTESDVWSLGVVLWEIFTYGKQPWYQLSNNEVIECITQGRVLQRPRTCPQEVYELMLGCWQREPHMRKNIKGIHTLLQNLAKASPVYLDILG
Sequence of Serine/threonine-protein kinase pim-1 (Homo sapiens) (P11309 whole entry, looked up): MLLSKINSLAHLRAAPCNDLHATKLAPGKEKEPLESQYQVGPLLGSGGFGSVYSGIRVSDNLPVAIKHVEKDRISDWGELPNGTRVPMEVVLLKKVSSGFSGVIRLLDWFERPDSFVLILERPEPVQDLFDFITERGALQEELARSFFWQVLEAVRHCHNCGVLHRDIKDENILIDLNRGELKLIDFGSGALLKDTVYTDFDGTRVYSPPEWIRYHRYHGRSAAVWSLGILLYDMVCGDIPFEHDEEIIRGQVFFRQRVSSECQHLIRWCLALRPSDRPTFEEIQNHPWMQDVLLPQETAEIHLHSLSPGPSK
Sequence of LIM domain kinase 1 (Homo sapiens) (P53667 whole entry, looked up, the tested form may be a part): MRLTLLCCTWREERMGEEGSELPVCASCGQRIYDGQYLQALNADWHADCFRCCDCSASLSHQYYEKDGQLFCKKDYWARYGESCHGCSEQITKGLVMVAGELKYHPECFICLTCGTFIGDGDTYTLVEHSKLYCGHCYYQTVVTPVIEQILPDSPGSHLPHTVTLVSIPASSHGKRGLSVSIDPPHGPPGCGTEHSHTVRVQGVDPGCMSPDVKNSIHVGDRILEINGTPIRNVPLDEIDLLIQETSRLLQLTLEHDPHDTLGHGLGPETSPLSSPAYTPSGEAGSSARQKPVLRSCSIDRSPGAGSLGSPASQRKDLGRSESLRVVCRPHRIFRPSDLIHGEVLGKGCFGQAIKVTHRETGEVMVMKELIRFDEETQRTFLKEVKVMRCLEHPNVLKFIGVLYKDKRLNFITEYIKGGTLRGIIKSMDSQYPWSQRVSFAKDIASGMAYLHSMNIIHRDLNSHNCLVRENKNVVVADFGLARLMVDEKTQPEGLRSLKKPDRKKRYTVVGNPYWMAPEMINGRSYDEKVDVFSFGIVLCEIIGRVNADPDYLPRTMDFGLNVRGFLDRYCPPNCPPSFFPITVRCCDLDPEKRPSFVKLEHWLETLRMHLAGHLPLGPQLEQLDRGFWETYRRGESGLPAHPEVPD
Sequence of RAF proto-oncogene serine/threonine-protein kinase (Homo sapiens) (P04049 whole entry): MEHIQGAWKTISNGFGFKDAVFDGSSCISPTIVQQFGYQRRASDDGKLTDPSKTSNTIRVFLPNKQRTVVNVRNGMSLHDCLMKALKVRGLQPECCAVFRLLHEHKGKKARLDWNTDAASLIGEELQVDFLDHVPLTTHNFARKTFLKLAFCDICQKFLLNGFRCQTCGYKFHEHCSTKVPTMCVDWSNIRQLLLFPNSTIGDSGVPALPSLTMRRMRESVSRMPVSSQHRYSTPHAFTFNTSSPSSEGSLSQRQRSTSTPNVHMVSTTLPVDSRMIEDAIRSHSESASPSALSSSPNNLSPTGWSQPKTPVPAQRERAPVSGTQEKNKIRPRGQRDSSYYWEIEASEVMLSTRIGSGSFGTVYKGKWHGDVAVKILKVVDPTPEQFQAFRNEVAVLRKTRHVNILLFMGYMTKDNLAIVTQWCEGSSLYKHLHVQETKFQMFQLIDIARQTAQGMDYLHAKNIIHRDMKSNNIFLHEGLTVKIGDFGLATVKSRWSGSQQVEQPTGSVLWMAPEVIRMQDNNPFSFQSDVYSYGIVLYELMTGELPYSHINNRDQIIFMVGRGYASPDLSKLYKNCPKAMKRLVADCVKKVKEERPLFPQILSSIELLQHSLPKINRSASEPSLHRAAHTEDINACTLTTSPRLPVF
Sequence of Tyrosine-protein kinase Yes (Homo sapiens) (P07947 2-543 limits assumed): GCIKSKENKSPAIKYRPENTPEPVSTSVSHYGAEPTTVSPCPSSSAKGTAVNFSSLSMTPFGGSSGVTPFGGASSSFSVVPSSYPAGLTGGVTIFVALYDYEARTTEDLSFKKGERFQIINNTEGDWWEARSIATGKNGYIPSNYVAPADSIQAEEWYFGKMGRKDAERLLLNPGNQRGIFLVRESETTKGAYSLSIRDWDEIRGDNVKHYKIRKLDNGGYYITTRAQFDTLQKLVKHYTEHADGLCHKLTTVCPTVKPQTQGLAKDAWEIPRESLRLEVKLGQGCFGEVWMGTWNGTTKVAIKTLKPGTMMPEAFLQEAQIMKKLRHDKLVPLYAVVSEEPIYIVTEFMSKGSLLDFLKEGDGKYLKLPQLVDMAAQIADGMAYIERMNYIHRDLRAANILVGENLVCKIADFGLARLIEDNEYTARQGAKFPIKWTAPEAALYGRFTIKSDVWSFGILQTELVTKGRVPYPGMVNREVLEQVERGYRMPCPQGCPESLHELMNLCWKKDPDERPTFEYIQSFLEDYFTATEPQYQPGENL
Sequence of Fibroblast growth factor receptor 1 (Homo sapiens) (P11362 22-822 limits assumed): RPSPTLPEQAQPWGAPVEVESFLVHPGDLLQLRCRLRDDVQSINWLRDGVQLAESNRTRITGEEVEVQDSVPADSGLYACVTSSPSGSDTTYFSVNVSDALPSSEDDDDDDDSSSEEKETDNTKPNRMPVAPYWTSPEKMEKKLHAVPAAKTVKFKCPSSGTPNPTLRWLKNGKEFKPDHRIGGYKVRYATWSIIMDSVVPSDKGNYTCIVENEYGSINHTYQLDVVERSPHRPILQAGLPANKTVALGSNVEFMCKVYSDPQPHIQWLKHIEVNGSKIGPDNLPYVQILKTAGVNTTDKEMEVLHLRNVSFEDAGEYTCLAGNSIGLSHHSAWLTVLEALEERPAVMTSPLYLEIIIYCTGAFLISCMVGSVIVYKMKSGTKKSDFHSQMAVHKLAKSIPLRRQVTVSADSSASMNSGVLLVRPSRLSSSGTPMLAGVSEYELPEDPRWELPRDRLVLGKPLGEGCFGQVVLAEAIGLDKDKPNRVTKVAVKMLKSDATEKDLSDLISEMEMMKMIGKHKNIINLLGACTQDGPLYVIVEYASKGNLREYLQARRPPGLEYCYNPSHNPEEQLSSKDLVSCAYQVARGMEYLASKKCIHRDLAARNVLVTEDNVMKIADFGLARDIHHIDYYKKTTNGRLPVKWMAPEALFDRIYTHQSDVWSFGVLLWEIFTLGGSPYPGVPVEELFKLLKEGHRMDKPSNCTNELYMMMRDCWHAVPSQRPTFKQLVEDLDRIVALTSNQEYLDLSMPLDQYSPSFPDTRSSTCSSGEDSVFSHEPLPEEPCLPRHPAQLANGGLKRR

Broadly, the inhibition is the percentage by which the read-out fell short of the control. Lower therefore signals a weak effect. For orientation: residual activity means the signal under treatment as a percentage of the control signal. Consider `Cc1ccc2cc(-c3n[nH]c4ccc(NC5CCNC5)cc34)[nH]c2c1` (stereo not given), for which, in [1], the inhibition is 46%. In addition, the residual activity was determined as 56% in experiment [2]; 0% in [3]; 10% in experiment [4]; 90% in experiment [5]; 0% in [6]; 1% in experiment [7]. Further, the residual activity in experiment [8] was 91%; in experiment [9] it was 53%; in [10], 2%; in experiment [11] it was 92%; in experiment [12], 97%; in experiment [13] it was 37%. Besides, the residual activity in experiment [14] was 76%; in experiment [15] it was 69%.
For `Cc1ccc2cc(-c3n[nH]c4ccc(NC5CCN(Cc6ccccc6)CC5)cc34)[nH]c2c1`, the inhibition in experiment [1] stood at 87%. For the same compound, the residual activity in experiment [2] is 95%; in experiment [3], -3%; in experiment [4], 40%; in [5] it was 90%; in [6] it was -2%; in [7] it was -3%. Besides, the residual activity in experiment [8] was 93%; in [9], 78%; in experiment [10], 1%; in experiment [11], 143%; in [12], 92%; in [13], 98%. Also, the residual activity in [14] was found to be 102%; in experiment [15], 86%.
